Experimental data: PubChem BioAssay (NCI)
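Method: 48-hour compound exposure of cells in 96-well plates, five concentrations, linear interpolation of endpoints. TGI: concentration producing complete growth inhibition.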

Assays:
Test in all cases: NCI anticancer screen, dose series, 48 h
[1] = system: 786-0 renal
[2] = system: A498 renal
[3] = system: A549 NSCLC
[4] = system: ACHN renal
[5] = system: BT-549 breast
[6] = system: CAKI-1 renal
[7] = system: CCRF-CEM leukemia
[8] = system: COLO 205 colon
[9] = system: DU-145 prostate
[10] = system: EKVX NSCLC
[11] = system: HCC-2998 colon
[12] = system: HCT-116 colon
[13] = system: HCT-15 colon
[14] = system: HL-60(TB) leukemia
[15] = system: HOP-92 NSCLC
[16] = system: HS 578T breast
[17] = system: HT29 colon
[18] = system: IGROV1 ovarian
[19] = system: K-562 leukemia
[20] = system: KM12 colon
[21] = system: LOX IMVI melanoma
[22] = system: M14 melanoma
[23] = system: MALME-3M melanoma
[24] = system: MCF7 breast
[25] = system: MDA-MB-231 breast
[26] = system: MDA-MB-435
[27] = system: MDA-N
[28] = system: MOLT-4 leukemia
[29] = system: NCI-H226 lung
[30] = system: NCI-H23 lung
[31] = system: NCI-H460 lung
[32] = system: NCI-H522 lung
[33] = system: NCI/ADR-RES ovarian
[34] = system: OVCAR-3 ovarian
[35] = system: OVCAR-4 ovarian
[36] = system: OVCAR-5 ovarian
[37] = system: OVCAR-8 ovarian
[38] = system: PC-3 prostate
[39] = system: RPMI-8226 leukemia
[40] = system: SF-268 CNS
[41] = system: SF-295 CNS
[42] = system: SF-539 CNS
[43] = system: SK-MEL-2 melanoma
[44] = system: SK-MEL-28 melanoma
[45] = system: SK-MEL-5 melanoma
[46] = system: SK-OV-3 ovarian
[47] = system: SN12C renal
[48] = system: SNB-19 CNS
[49] = system: SW-620 colon
[50] = system: T-47D breast
[51] = system: TK-10 renal
[52] = system: U251 CNS
[53] = system: UACC-257 melanoma
[54] = system: UACC-62 melanoma
[55] = system: UO-31 renal
[56] = system: HOP-62 NSCLC
[57] = system: RXF 393 renal
[58] = system: SNB-75 CNS
[59] = system: SR leukemia

## CCCCc1ccc(Nc2nc(N)c3[nH]cnc3n2)cc1
[1]
  TGI: 33.2 µM
[2]
  TGI: 24.2 µM
[3]
  TGI: 79.4 µM
[4]
  TGI: 35.5 µM
[5]
  TGI: 47.9 µM
[6]
  TGI: 37.7 µM
[7]
  TGI: 52.4 µM
[8]
  TGI: 38.1 µM
[9]
  TGI: 56.7 µM
[10]
  TGI: 45.4 µM
[11]
  TGI: 46.4 µM
[12]
  TGI: 32.3 µM
[13]
  TGI: 66.1 µM
[14]
  TGI: 42.5 µM
[15]
  TGI: 33.3 µM
[16]
  TGI: 41.6 µM
[17]
  TGI: 28.3 µM
[18]
  TGI: 27.9 µM
[19]
  TGI: > 100 µM
[20]
  TGI: 36.5 µM
[21]
  TGI: 33.3 µM
[22]
  TGI: 88 µM
[23]
  TGI: 38.1 µM
[24]
  TGI: 42.4 µM
[25]
  TGI: 39 µM
[26]
  TGI: 40.6 µM
[27]
  TGI: 32.6 µM
[28]
  TGI: 40.2 µM
[29]
  TGI: 53.2 µM
[30]
  TGI: 32.8 µM
[31]
  TGI: 52.2 µM
[32]
  TGI: 28.8 µM
[33]
  TGI: 37.2 µM
[34]
  TGI: 51.9 µM
[35]
  TGI: 60.4 µM
[36]
  TGI: 73.5 µM
[37]
  TGI: 31.8 µM
[38]
  TGI: 39.7 µM
[39]
  TGI: 77.5 µM
[40]
  TGI: 32.8 µM
[41]
  TGI: 68.8 µM
[42]
  TGI: 43.4 µM
[43]
  TGI: 57.6 µM
[44]
  TGI: 44.1 µM
[45]
  TGI: 30.9 µM
[46]
  TGI: 52.7 µM
[47]
  TGI: 31.1 µM
[48]
  TGI: 37.8 µM
[49]
  TGI: 63.6 µM
[50]
  TGI: > 100 µM
[51]
  TGI: 43.2 µM
[52]
  TGI: 48 µM
[53]
  TGI: 47.4 µM
[54]
  TGI: 35.3 µM
[55]
  TGI: 27.1 µM

## COc1cc(CNc2nc3cc(C(F)(F)F)ccc3nc2C(=O)O)cc(OC)c1OC
[1]
  TGI: 59.1 µM
[2]
  TGI: 60.7 µM
[3]
  TGI: 61.5 µM
[4]
  TGI: 73.3 µM
[5]
  TGI: > 100 µM
[6]
  TGI: 78.9 µM
[8]
  TGI: 53.7 µM
[9]
  TGI: > 100 µM
[10]
  TGI: 57.1 µM
[11]
  TGI: > 100 µM
[12]
  TGI: 29 µM
[13]
  TGI: > 100 µM
[14]
  TGI: 15.4 µM
[56]
  TGI: 59.3 µM
[16]
  TGI: 57 µM
[19]
  TGI: 61 µM
[20]
  TGI: 78.2 µM
[21]
  TGI: > 100 µM
[22]
  TGI: 35.7 µM
[23]
  TGI: > 100 µM
[24]
  TGI: 49.9 µM
[26]
  TGI: 92.9 µM
[27]
  TGI: 45.2 µM
[28]
  TGI: 58.1 µM
[29]
  TGI: > 100 µM
[30]
  TGI: > 100 µM
[31]
  TGI: 82 µM
[32]
  TGI: > 100 µM
[33]
  TGI: 76.4 µM
[34]
  TGI: 64.2 µM
[36]
  TGI: > 100 µM
[37]
  TGI: > 100 µM
[38]
  TGI: 57.9 µM
[57]
  TGI: > 100 µM
[40]
  TGI: > 100 µM
[41]
  TGI: 43.3 µM
[42]
  TGI: 37.6 µM
[43]
  TGI: 47.1 µM
[44]
  TGI: > 100 µM
[46]
  TGI: > 100 µM
[47]
  TGI: 30.2 µM
[48]
  TGI: 56.7 µM
[58]
  TGI: 74.7 µM
[59]
  TGI: > 100 µM
[49]
  TGI: > 100 µM
[50]
  TGI: 83.8 µM
[51]
  TGI: 39.7 µM
[52]
  TGI: 31.2 µM
[53]
  TGI: 63.6 µM
[54]
  TGI: 28.9 µM
[55]
  TGI: 39.4 µM
